Data taken from patent US12428455B2, “Dominant negative CEBPB and CEBPD proteins and methods of use for decreasing viability of neoplastic cells” (The Trustees of Columbia University in the City of New York, priority 2018, dated 2025).
No end group written: not given here.

Key:
Assay type in all cases: cell-based
T98G and HCT116 cells = assay: Combination with gamma radiation, overall conclusion; settings: 2 Gy or 5 Gy; immediate or delayed peptide treatment
Method: Replicate cultures of T98G and HCT116 cells were exposed to 2 Gy or 5 Gy of gamma radiation. Immediately, the cultures were treated with 3 μM, 10 μM, or 20 μM CP-dn-CEBPB and CP-dn-CEBPD peptides, maintained for 6 days, and then assessed for cell number. […]
Replicate cultures of T98G and HCT116 cells were exposed to 2 Gy or 5 Gy of gamma radiation. One day later, the cultures were treated with 0.05 μM, 0.5 μM, or 5 μM CP-dn-CEBPB and CP-dn-CEBPD peptides, maintained for 6 days, and then assessed for cell number. The bar graphs of FIGS. 24A (T98G, CP-dn-CEBPB), 24C (T98G, CP-dn-CEBPBD, 24E (HCT116, CP-dn-CEBPD), and 24G (HCT116, CP-dn-CEBPD) show relative cell numbers for each condition as compared to untreated controls. The line graphs of FIGS. 24B (T98G, CP-dn-CEBPB), 24D (T98G, CP-dn-CEBPBD, 24F (HCT116, CP-dn-CEBPB), and 24H (HCT116, CP-dn-CEBPD) show the response as normalized in each case so that 100 represents the relative number of surviving cells that received the indicated level of radiation treatment, but no peptide treatment. Calculated Combination Indexes (CI) are T98G, CI=0.61±0.05 for CP-dn-CEBPB, 0.68±0.07 for CP-dn-CEBPD; HCT116, 0.89±0.04 for CP-dn-CEBPB, 0.86±0.05 for CP-dn-CEBPD. […]

[1] = tested on: T98G, MDA-MB 231, and MCF7 cells; assay: Combination with paclitaxel, overall conclusion; settings: co-treatment, cell number or colony number
Method: Replicate cultures of T98G, MDA-MB 231, and MCF7 cells were treated with 1 nM or 5 nM paclitaxel and 3 μM, 10 μM, or 20 μM CP-dn-CEBPB and CP-dn-CEBPD peptides, maintained for 6 days, and then assessed for cell number. The bar graphs of FIGS. 26A (T98G, CP-dn-CEBPB), 26C (T98G, CP-dn-CEBPBD, 26E (MDA-MB-231, CP-dn-CEBPBD), 26G (MDA-MB-231, CP-dn-CEBPD), 26I (MCF7, CP-dn-CEBPBB), and 26K (MCF7, CP-dn-CEBPBD) show relative cell numbers for each condition as compared to untreated controls. The line graphs of FIGS. 26B (T98G, CP-dn-CEBPB), 26D (T98G, CP-dn-CEBPBD), 26F (MDA-MB-231, CP-dn-CEBPB), 26H (MDA-MB-231, CP-dn-CEBPD), 26J (MCF7, CP-dn-CEBPB), and 26L (MCF7 CP-dn-CEBPBD) show the response as normalized in each case so that 100 represents the relative number of surviving cells that received the indicated level of paclitaxel, but no peptide treatment. Calculated combination indices (CI) were as follows: MCF7: CI=0.41±0.04 for CP-dn-CEBPB; 0.44±0.04 for CP-dn-CEBPD; MDA-MB-231: 0.74±0.03 for CP-dn-CEBPB; 0.74±0.05 for CP-dn-CEBPD; T98G: CI=0.84±0.06 for CP-dn-CEBPB and 0.75±0.07 for CP-dn-CEBPD.
Replicate cultures of MDA-MB-231 cells in soft agar were treated with 0.1 nM or 0.5 nM 50 nM or 500 nM CP-dn-CEBPB and CP-dn-CEBPD peptides, maintained for 12 days, and then assessed for colony number. […]

MDA-MB 231 cells = assay: Scratch migration assay, MDA-MB 231; settings: 20 hours, 20 μM or 40 μM
Method: Monolayers of MDA-MB 231 or T98G cells were subjected to formation of a scratch at 0 time and cultured for 20 hours in 20 μM or 40 μM CP-DN-CEBPB and CP-DN-CEBPD. Multiple images taken at 0 time and after 20 hours were analyzed for gap width of the scratches into which cells migrated or not. Example images for T98G are found in FIG. 22A, with compiled data for the T98G samples in FIG. 22B. Example images for MDA-MB 231 are found in FIG. 22C, with compiled data for the MDA-MB 231 samples in FIG. 22D.

HCT116 cells [2] = assay: Colony forming activity on culture plates, HCT116; settings: 6 days; doses 0.05, 0.5 and 5 μM
Method: T98G (FIG. 21A), MDA-MB 231 (FIG. 21B), and HCT116 (FIG. 21C) cells were exposed to CP-DN-CEBPB and CP-DN-CEBPD for 6 days at doses of 0.05 μM 0.5 μM, and 5 μM while growing in soft agar. Growth was inhibited by does as low as 0.5 μM. T98G (FIG. 21D), MDA-MB 231 (FIG. 21E), and HCT116 (FIG. 21F) cells were exposed to CP-DN-CEBPB and CP-DN-CEBPD for 6 days at doses of 0.05 μM 0.5 μM, and 5 μM while growing on culture plates. Growth was inhibited by does as low as 0.5 μM.

HCT116 cells [3] = assay: Combination with gamma radiation, cell number, HCT116; settings: 2 Gy or 5 Gy; peptide 0.05, 0.5 or 5 μM one day later, 6 days; CI<1 indicates synergism
Method: Replicate cultures of T98G and HCT116 cells were exposed to 2 Gy or 5 Gy of gamma radiation. One day later, the cultures were treated with 0.05 μM, 0.5 μM, or 5 μM CP-dn-CEBPB and CP-dn-CEBPD peptides, maintained for 6 days, and then assessed for cell number. The bar graphs of FIGS. 24A (T98G, CP-dn-CEBPB), 24C (T98G, CP-dn-CEBPBD, 24E (HCT116, CP-dn-CEBPD), and 24G (HCT116, CP-dn-CEBPD) show relative cell numbers for each condition as compared to untreated controls. The line graphs of FIGS. 24B (T98G, CP-dn-CEBPB), 24D (T98G, CP-dn-CEBPBD, 24F (HCT116, CP-dn-CEBPB), and 24H (HCT116, CP-dn-CEBPD) show the response as normalized in each case so that 100 represents the relative number of surviving cells that received the indicated level of radiation treatment, but no peptide treatment. Calculated Combination Indexes (CI) are T98G, CI=0.61±0.05 for CP-dn-CEBPB, 0.68±0.07 for CP-dn-CEBPD; HCT116, 0.89±0.04 for CP-dn-CEBPB, 0.86±0.05 for CP-dn-CEBPD. CI=1 indicates additivity; CI<1 indicates synergism; CI>1 indicates antagonism.

| Sequence | kind of combined effect with gamma radiation (T98G and HCT116 cells) | kind of combined effect with paclitaxel [1] | cell migration into scratch (gap width) (MDA-MB 231 cells) | lowest dose at which growth was inhibited, culture plates (HCT116 cells [2]) [µM] | Combination Index (CI) with gamma radiation (HCT116 cells [3]) |
| --- | --- | --- | --- | --- | --- |
| RQIKIWFQNRRMKWKKLETQHKVLELTAENERLQKKVEQLSRELSTLRNLFKQL [CP-DN-CEBPB] | synergistic effect | synergistic effect | able to inhibit migration | 0.5 | 0.89±0.04 |
| RQIKIWFQNRRMKWKKLVELSAENEKLHQRVEQLTRDLAGLRQFFK [CP-DN-CEBPD] | synergistic effect | synergistic effect | able to inhibit migration | 0.5 | 0.86±0.05 |
